Our source for the IC50 values is EP0391411A2, “3'-Substituted methyl nucleosides as antiviral agents” (Bristol-Myers Squibb Company, priority 1989, dated 1990).

For experiment [1], the system named is Murine leukemia virus (MuLV). The experiment can be described thus: UV-XC plaque assay against murine retroviruses. The class given is cell-based. The settings on record: SC1, SC-1 cells. The protocol: The compounds were evaluated for antiviral activity against Murine leukemia virus (MuLV) strains using the UV-XC plaque assay (Rowe, et al, "Virology", 42:1136, 1970).
The MuLV strains were grown in feral mouse cells (SC-1) and used for antiviral tests using the UV-XC plaque assay. Briefly, SC-1 cells are grown as monolayers in 4-well tissue culture plates and inoculated with approximately 50-100 plaque forming units of MuLV in 0.5 mL of 5% EMEM containing 20 ug/mL DEAE/Dextran. After 1 hour adsorption, the inoculum is removed and 5 mL of 5% EMEM containing three-fold dilutions of the appropriate drug are added. Five days later, the cultures are UV-irradiated with an ultraviolet lamp and rat XC sarcoma cells are added to the cultures. Three to four days after UV-irradiation, the cell cultures are stained with Giemsa stain and the plaques are enumerated. Antiviral activity is expressed in terms of the reduction in the mean number of UV-XC plaques counted in the drug treated, virus-infected cultures compared with mean number of plaques counted in untreated, virus-infected control cultures.

The next experiment concerns HIV (LAV strain). In words: Anti-HIV/LAV activity in CEM-F cells, p-24 gag protein ELISA. The settings on record: Human immunodeficiency virus 1, 192 h, eight days, p-24 gag protein in supernatant, read-out: HIV (ID50). The class given is cell-based. How it is done: The anti-HIV/LAV activity was measured in cultures of CEM-F cells. The CEM cells were infected with approximately 30 TCID₅₀ (50% tissue culture infectious dose) of HIV (LAV strain). The cells were then incubated for 45 minutes at 37°C. The test compounds, in culture medium, were added at various concentrations to the infected cells and then incubated for a further eight days. After eight days, the antiviral activity was evaluated in the culture media supernatant for p-24 gag protein by an enzyme capture assay (ELISA). The antiviral activity was expressed as the dose that inhibits 50% of the virus expression (ID₅₀ in µM) as detected by the assay described.
On the technique in general: In an ELISA, binding on a coated surface is turned into a signal by an enzyme label.

A value given as a limit tells only on which side of the number the result lay.

In experiment [1], `Cc1cn([C@@H]2C[C@H](CO)[C@@H](CO)O2)c(=O)[nH]c1=O` [Example 4³, 1-(2,3-Dideoxy-3-C-hydroxymethyl-α-D-erythropentofuranosyl)thymine] displayed an IC50 of more than 32 µM.

With `O=c1[nH]cnc2c1ncn2[C@H]1C[C@H](CO)[C@@H](CO)O1` [Example 26, 9-(2,3-Dideoxy-3-C-hydroxymethyl-β-D-erythro-pentofuranosyl)hypoxanthine], the figures for the IC50 (in experiment [1]; with HIV (LAV strain)) were 5 µM and more than 10 µM, respectively. In the case of `Nc1ncnc2c1ncn2[C@H]1C[C@H](CO)[C@@H](CO)O1` [Example 25, 9-[2,3-Dideoxy-3-C-hydroxymethyl-β-D-erythro-pentofuranosyl]adenine], in the experiment on HIV (LAV strain), the IC50 is more than 10 µM. Regarding `Cc1cn([C@H]2C[C@H](CO)[C@@H](CO)O2)c(=O)[nH]c1=O` [Example 4², 1-(2,3-Dideoxy-3-C-hydroxymethyl-β-D-erythro-pentofuranosyl)thymine], the IC50 is 17.7 µM in experiment [1] and more than 10 µM in the experiment with HIV (LAV strain). As to `Nc1ccn([C@H]2C[C@H](CO)[C@@H](CO)O2)c(=O)n1` [Example 16², 1-(2,3-Dideoxy-3-C-hydroxymethyl-β-D-erythro-pentofuranosyl)cytosine], the IC50 is 0.06 µM in experiment [1] and more than 0.1 µM with HIV (LAV strain). As for `Cc1cn([C@H]2C[C@H](N=[N+]=[N-])[C@@H](CO)O2)c(=O)[nH]c1=O` [AZT, 3′-Azido-3′-deoxythymidine, reference compound], the IC50 was determined as 0.0066 µM in experiment [1] and 1 µM with HIV (LAV strain). Turning to `O=c1ccn([C@H]2C[C@H](CO)[C@@H](CO)O2)c(=O)[nH]1` [Example 12, 1-(2,3-Dideoxy-3-C-hydroxymethyl-β-D-erythro-pentofuranosyl)uracil], the IC50 in experiment [1] is 83 µM; in the experiment with HIV (LAV strain), more than 10 µM. Consider `Nc1ccn([C@@H]2O[C@H](CO)[C@@H](CO)[C@H]2O)c(=O)n1` [Example 8, 1-(3-Deoxy-3-C-hydroxymethyl-β-D-ribofuranosyl)cytosine], for which the IC50 in experiment [1] was more than 100 µM; in the experiment with HIV (LAV strain), 0.8 µM. For the molecule `Nc1ccn([C@@H]2C[C@H](CO)[C@@H](CO)O2)c(=O)n1` [Example 16³, 1-(2,3-Dideoxy-3-C-hydroxymethyl-α-D-erythro-pentofuranosyl)cytosine], the IC50 in the experiment with HIV (LAV strain) is 4.7 µM.
